The first assay addresses T1, BTK (Bruton tyrosine kinase) (Homo sapiens, UniProt Q06187).
T1 construct: GST or His (the text leaves open which); purchased Reaction Biology Europe GmbH Lot 012,11; host or cells: Sf9 insect cells or E. coli (not resolved)
Nature of the assay: BTK screening assay (33PanQinase Activity Assay, radiometric).
Conditions: not given
It counts as biochemical. How it is done:
Inhibition of BTK activity was evaluated using a radiometric protein kinase assay (33PanQinase® Activity Assay) to measure the activity of BTK (Bruton tyrosine kinase).
Kinase assays were performed in 96-well ScintiPlates™ from Perkin Elmer (Boston, MA, USA) in a 50 μL reaction volume. The reaction cocktail was pipetted in four steps in the following order: 10 μL of non-radioactive ATP solution (in H2O); 25 μL of assay buffer/[γ-^33P]-ATP mixture; 5 μL of compound test sample in 10% DMSO; 10 μL of enzyme/substrate mixture.
BTK kinase was expressed in Sf9 insect cells or in E. coli as recombinant GST-fusion proteins or His-tagged proteins, either as full-length or enzymatically active fragments from human cDNAs, and purified by either GSH-affinity chromatography or immobilized metal. Purity was examined by SDS-PAGE/Coomassie staining, and identity confirmed by mass spectroscopy.
The reaction cocktails were incubated at 30° C. for 60 minutes. The reaction was stopped with 50 μL of 2% (v/v) H3PO4, plates were aspirated and washed two times with 200 μL 0.9% (w/v) NaCl. Incorporation of ^33Pi (counting of “cpm”) was determined with a microplate scintillation counter (Microbeta, Wallac).
The median value of the counts in wells containing assay buffer without enzyme, and without test compound was defined as “low control.” This value reflects unspecific binding of radioactivity to the plate in the absence of a protein kinase but in the presence of the substrate. The median value of the counts in wells containing assay buffer without test compound was defined as the “high control,” i.e. full activity in the absence of any inhibitor. The difference between high and low control was taken as 100% activity. Residual activity (in %) was calculated using the following formula: Res. Activity (%)=100×[(cpm of compound-low control)/(high control-low control)].
The fitting method used was a least-squares fit.
T1 sequence (Q06187 whole entry): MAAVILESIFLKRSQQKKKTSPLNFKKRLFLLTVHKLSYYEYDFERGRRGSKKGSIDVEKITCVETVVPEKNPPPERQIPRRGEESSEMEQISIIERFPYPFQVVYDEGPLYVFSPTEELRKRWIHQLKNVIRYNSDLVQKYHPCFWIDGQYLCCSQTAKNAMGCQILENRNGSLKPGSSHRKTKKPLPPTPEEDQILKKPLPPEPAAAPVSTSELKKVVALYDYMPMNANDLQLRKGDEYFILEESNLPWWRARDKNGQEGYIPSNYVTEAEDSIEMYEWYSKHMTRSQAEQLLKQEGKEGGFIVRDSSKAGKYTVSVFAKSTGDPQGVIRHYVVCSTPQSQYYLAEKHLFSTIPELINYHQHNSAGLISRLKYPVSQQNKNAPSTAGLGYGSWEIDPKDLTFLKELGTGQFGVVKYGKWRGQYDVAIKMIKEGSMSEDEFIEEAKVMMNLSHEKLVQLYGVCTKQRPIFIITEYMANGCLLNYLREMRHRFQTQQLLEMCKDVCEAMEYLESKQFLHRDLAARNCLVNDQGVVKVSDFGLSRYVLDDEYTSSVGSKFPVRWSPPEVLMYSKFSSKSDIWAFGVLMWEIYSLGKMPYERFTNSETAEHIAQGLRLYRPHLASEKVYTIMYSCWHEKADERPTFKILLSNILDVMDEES
For orientation: IC50 means the concentration needed to halve the response being measured. For the compound `Cc1cccnc1[C@H]1CCC[C@@H](c2ncccc2C)N1CCNC(=O)c1cc2c(-c3cccc(NC(=O)c4ccccc4)c3C)ncnc2[nH]1` [Compound I-74], the IC50 was > 2500 nM.

The assay is the same for the next values; noted with them: Inhibition of BTK, radiometric 33PanQinase Activity Assay, 3 μM ATP, 10 concentrations in singlicate, top 10 μM; read-out: 33PanQinase ® Radiometric IC50.
In the case of `Cc1cc(-c2ncnc3[nH]c(C(=O)NCCCCN4[C@@H](c5ncccc5C)CCC[C@H]4c4ncccc4C)cc23)ccc1CNC(=O)c1ccccc1` [Compound I-47], the IC50 was 1 to 100 nM. Same read-out and setting: the result for `CCc1ccc(C(=O)NCc2ccc(-c3ncnc4[nH]c(C(=O)NCCCCN5[C@@H](c6ncccc6C)CCC[C@H]5c5ncccc5C)cc34)cc2C)cc1` [Compound I-48] reads 1 to 100 nM; that for `Cc1cc(-c2ncnc3[nH]c(C(=O)NCCCCN4[C@@H](c5ncccc5C)CCC[C@H]4c4ncccc4C)cc23)ccc1CNC(=O)c1ccc(F)cc1` [Compound I-49], 1 to 100 nM.

Consider `Cc1cc(-c2ncnc3[nH]c(C(=O)NCCCN4[C@@H](c5ncccc5C)CCC[C@H]4c4ncccc4C)cc23)ccc1CNC(=O)c1ccccc1` [Compound I-50], for which the IC50 lay in the range of 1 to 100 nM.

As for `CCc1ccc(C(=O)NCc2ccc(-c3ncnc4[nH]c(C(=O)NCCCN5[C@@H](c6ncccc6C)CCC[C@H]5c5ncccc5C)cc34)cc2C)cc1` [Compound I-51], the 50% inhibitory concentration (IC50) was 1 to 100 nM. The same measure, in the same setting: the result for `Cc1cc(-c2ncnc3[nH]c(C(=O)NCCCN4[C@@H](c5ncccc5C)CCC[C@H]4c4ncccc4C)cc23)ccc1CNC(=O)c1ccc(F)cc1` [Compound I-52] reads 1 to 100 nM; that for `CCOC1CN(C(=O)NCc2ccc(-c3ccnc(Nc4cnn(CCN5[C@@H](c6ncccc6C)CCC[C@H]5c5ncccc5C)c4)n3)cc2C)C1` [Compound I-53], 1 to 100 nM.

With `COC1CN(C(=O)NCc2ccc(-c3ccnc(Nc4cnn(CCCN5[C@@H](c6ncccc6C)CCC[C@H]5c5ncccc5C)c4)n3)cc2C)C1` [Compound I-54], the IC50 was in the range of 1 to 100 nM. For the compound `CCOC1CN(C(=O)NCc2ccc(-c3ccnc(Nc4cnn(CCCN5[C@@H](c6ncccc6C)CCC[C@H]5c5ncccc5C)c4)n3)cc2C)C1` [Compound I-55], the IC50 was 1 to 100 nM. For the compound `Cc1cc(-c2ccnc(Nc3cnn(CCCN4[C@@H](c5ncccc5C)CCC[C@H]4c4ncccc4C)c3)n2)ccc1CNC(=O)N1CC(OC(C)(C)C)C1` [Compound I-56], the IC50 was in the range of 1 to 100 nM. Same read-out and setting: the same measure for `Cc1cc(-c2ccnc(Nc3cnn(CCCN4[C@@H](c5ncccc5C)CCC[C@H]4c4ncccc4C)c3)n2)ccc1CNC(=O)N1CC(OC(F)(F)F)C1` [Compound I-57]: 1 to 100 nM; for `Cc1ccc(Oc2ccc(C(=O)c3c[nH]c4ncnc(N[C@@H]5CC[C@@H](C(=O)NCCCCN6[C@@H](c7ncccc7C)CCC[C@H]6c6ncccc6C)OC5)c34)c(Cl)c2)cc1` [Compound I-58]: 1 to 100 nM. The same measure, in the same setting: the result for `Cc1cccc(Oc2ccc(C(=O)c3c[nH]c4ncnc(N[C@@H]5CC[C@@H](C(=O)NCCCCN6[C@@H](c7ncccc7C)CCC[C@H]6c6ncccc6C)OC5)c34)c(Cl)c2)c1` [Compound I-59] reads 1 to 100 nM; that for `Cc1ccccc1Oc1ccc(C(=O)c2c[nH]c3ncnc(N[C@@H]4CC[C@@H](C(=O)NCCCCN5[C@@H](c6ncccc6C)CCC[C@H]5c5ncccc5C)OC4)c23)c(Cl)c1` [Compound I-60], 1 to 100 nM; that for `Cc1cccnc1[C@H]1CCC[C@@H](c2ncccc2C)N1CCN1CCN(C(=O)c2ccc(-c3cc4c(-c5cccc(NC(=O)c6ccc(F)cc6)c5C)ncnc4[nH]3)cc2)CC1` [Compound I-67], 1 to 100 nM.

For the compound `Cc1cccnc1[C@H]1CCC[C@@H](c2ncccc2C)N1CCN1CCN(C(=O)c2ccc(-c3cc4c(-c5cccc(NC(=O)c6ccccc6F)c5C)ncnc4[nH]3)cc2)CC1` [Compound I-68], the concentration for half-maximal inhibition (IC50) is 1 to 100 nM. Same read-out and setting: the result for `CC(=O)Nc1cccc(-c2ncnc3[nH]c(-c4ccc(C(=O)N5CCN(CCN6[C@@H](c7ncccc7C)CCC[C@H]6c6ncccc6C)CC5)cc4)cc23)c1C` [Compound I-69] reads 1 to 100 nM; that for `Cc1cccnc1[C@H]1CCC[C@@H](c2ncccc2C)N1CCN1CCN(C(=O)c2ccc(-c3cc4c(-c5cccc(NC(=O)C(C)(C)C)c5C)ncnc4[nH]3)cc2)CC1` [Compound I-70], 100 to 1000 nM; that for `Cc1cccnc1[C@H]1CCC[C@@H](c2ncccc2C)N1CCN1CCN(C(=O)[C@]23C[C@](c4cc5c(-c6cccc(NC(=O)c7ccccc7)c6C)ncnc5[nH]4)(C2)C3)CC1` [Compound I-71], 1000 to 2500 nM.

Turning to `Cc1cccnc1C1CCCCN1CCN1CCN(C(=O)c2ccc(-c3cc4c(-c5cccc(NC(=O)c6ccccc6)c5C)ncnc4[nH]3)cc2)CC1` (stereo not drawn) [Compound I-73], the IC50 lay within 100 to 1000 nM.

For the compound `Cc1cccnc1[C@H]1CCC[C@@H](c2ncccc2C)N1CCCNC(=O)c1cc2c(-c3cccc(NC(=O)c4ccccc4)c3C)ncnc2[nH]1` [Compound I-75], the IC50 is > 2500 nM. The same measure, in the same setting: the result for `Cc1cccnc1[C@H]1CCC[C@@H](c2ncccc2C)N1CCCCNC(=O)c1cc2c(-c3cccc(NC(=O)c4ccccc4)c3C)ncnc2[nH]1` [Compound I-76] reads > 2500 nM; that for `Cc1cccnc1[C@H]1CCC[C@@H](c2ncccc2C)N1CCNC1CN(C(=O)c2cc3c(-c4cccc(NC(=O)c5ccccc5)c4C)ncnc3[nH]2)C1` [Compound I-77], > 2500 nM. The same measure, in the same setting: the result for `Cc1cccnc1[C@H]1CCC[C@@H](c2ncccc2C)N1CCCNC1CN(C(=O)c2cc3c(-c4cccc(NC(=O)c5ccccc5)c4C)ncnc3[nH]2)C1` [Compound I-78] reads > 2500 nM. Regarding `Cc1cccnc1[C@H]1CCC[C@@H](c2ncccc2C)N1CCCCNC1CN(C(=O)c2cc3c(-c4cccc(NC(=O)c5ccccc5)c4C)ncnc3[nH]2)C1` [Compound I-79], the 50% inhibitory concentration (IC50) was > 2500 nM.

As to `Cc1cc(-c2ncnc3[nH]c(C(=O)NCCN4[C@@H](c5ncccc5C)CCC[C@H]4c4ncccc4C)cc23)ccc1CNC(=O)c1ccc(F)cc1` [Compound I-80], the IC50 lay in the range of 100 to 1000 nM. Turning to `Cc1cc(-c2ncnc3[nH]c(C(=O)NCCN4[C@@H](c5ncccc5C)CCC[C@H]4c4ncccc4C)cc23)ccc1CNC(=O)c1cccc(F)c1` [Compound I-81], the concentration for half-maximal inhibition (IC50) lay within 100 to 1000 nM. On the same count and under the same terms, the result for `Cc1cc(-c2ncnc3[nH]c(C(=O)NCCCN4[C@@H](c5ncccc5C)CCC[C@H]4c4ncccc4C)cc23)ccc1CNC(=O)c1cccc(F)c1` [Compound I-82] reads 100 to 1000 nM; that for `Cc1cc(-c2ncnc3[nH]c(C(=O)NCCCCN4[C@@H](c5ncccc5C)CCC[C@H]4c4ncccc4C)cc23)ccc1CNC(=O)c1cccc(F)c1` [Compound I-83], 100 to 1000 nM; that for `Cc1cc(-c2ncnc3[nH]c(C(=O)NCCN4[C@@H](c5ncccc5C)CCC[C@H]4c4ncccc4C)cc23)ccc1CNC(=O)c1cc(F)cc(F)c1` [Compound I-84], 100 to 1000 nM.

As for `Cc1cc(-c2ncnc3[nH]c(C(=O)NCCCN4[C@@H](c5ncccc5C)CCC[C@H]4c4ncccc4C)cc23)ccc1CNC(=O)c1cc(F)cc(F)c1` [Compound I-85], the IC50 lay within 100 to 1000 nM.

`Cc1cc(-c2ncnc3[nH]c(C(=O)NCCCCN4[C@@H](c5ncccc5C)CCC[C@H]4c4ncccc4C)cc23)ccc1CNC(=O)c1cc(F)cc(F)c1` [Compound I-86]: the IC50 was in the range of 100 to 1000 nM. Still for that read-out and setting: the result for `Cc1cccnc1[C@H]1CCC[C@@H](c2ncccc2C)N1CCNC(=O)c1cc2c(-c3cccc(NC(=O)c4ccc(F)cc4)c3C)ncnc2[nH]1` [Compound I-87] reads > 2500 nM; that for `Cc1cccnc1[C@H]1CCC[C@@H](c2ncccc2C)N1CCCNC(=O)c1cc2c(-c3cccc(NC(=O)c4ccc(F)cc4)c3C)ncnc2[nH]1` [Compound I-88], > 2500 nM. Still for that read-out and setting: the result for `Cc1cccnc1[C@H]1CCC[C@@H](c2ncccc2C)N1CCCCNC(=O)c1cc2c(-c3cccc(NC(=O)c4ccc(F)cc4)c3C)ncnc2[nH]1` [Compound I-89] reads > 2500 nM. Turning to `Cc1cccnc1[C@H]1CCC[C@@H](c2ncccc2C)N1CCNC1CN(C(=O)c2cc3c(-c4cccc(NC(=O)c5ccc(F)cc5)c4C)ncnc3[nH]2)C1` [Compound I-90], the IC50 was > 2500 nM.

On to `Cc1cccnc1[C@H]1CCC[C@@H](c2ncccc2C)N1CCCNC1CN(C(=O)c2cc3c(-c4cccc(NC(=O)c5ccc(F)cc5)c4C)ncnc3[nH]2)C1` [Compound I-91], for which the IC50 is > 2500 nM. On to `Cc1cccnc1[C@H]1CCC[C@@H](c2ncccc2C)N1CCCCNC1CN(C(=O)c2cc3c(-c4cccc(NC(=O)c5ccc(F)cc5)c4C)ncnc3[nH]2)C1` [Compound I-92], for which the IC50 was in the range of 1000 to 2500 nM.

Source of the values: patent publication US20250326753A1, “DUAL CXCR4-BTK INHIBITORS” (X4 Pharmaceuticals, Inc., priority 2022, published 2025).
